pEC50, pIC50: −log10 of the molar value. Where a SMILES comes first, the peptide text is derived from it. Where no end group is shown, it is not given here. [ ]: non-standard residue; d: D form. The star is where a group is joined. hArg = N=C(N)NCCCC[C@H](N)C(=O)O; Cit = NC(=O)NCCC[C@H](N)C(=O)O; Hexanoyl = CCCCCC(=O)*; Aib = CC(C)(N)C(=O)O
Key:
human PAC1 = biological target: T1, human PAC1 (Homo sapiens, UniProt P41586); experiment: Filter binding assay, membranes of cells transiently transfected with human PAC1, 125I-labeled PACAP-27 tracer (Table 2); set-up: expressed in transfected cells; conditions: read-out: Human PAC1 Receptor Binding
T1 sequence (P41586 21-468): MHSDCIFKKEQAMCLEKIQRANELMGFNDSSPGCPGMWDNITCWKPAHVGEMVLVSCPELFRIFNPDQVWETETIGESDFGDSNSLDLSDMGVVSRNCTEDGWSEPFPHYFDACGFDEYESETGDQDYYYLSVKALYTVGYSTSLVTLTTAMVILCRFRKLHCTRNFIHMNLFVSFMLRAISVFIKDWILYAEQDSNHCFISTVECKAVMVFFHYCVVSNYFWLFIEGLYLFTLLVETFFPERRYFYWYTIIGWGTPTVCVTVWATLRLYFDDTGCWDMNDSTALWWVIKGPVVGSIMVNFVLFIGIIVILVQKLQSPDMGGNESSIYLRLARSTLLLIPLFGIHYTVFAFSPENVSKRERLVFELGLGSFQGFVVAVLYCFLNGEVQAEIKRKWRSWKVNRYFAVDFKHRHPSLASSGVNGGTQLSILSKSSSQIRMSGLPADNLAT
Method in brief: (§1)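 Scintillation counting of filter-retained radioligand gave the read-out. Compounds competed with the labelled tracer (about 40000 cpm) for 2.5 μg membranes during 1 hour of shaking in HEPES pH 7.4 buffer containing 0.5% BSA.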

human VPAC1 = biological target: T2, human VPAC1 (Homo sapiens, UniProt P32241); experiment: Filter binding assay, membranes of cells transiently transfected with human VPAC1, 125I-labeled VIP tracer (Table 2); set-up: expressed in transfected cells; conditions: read-out: Human VPAC1 Receptor Binding
T2 sequence (P32241 31-457): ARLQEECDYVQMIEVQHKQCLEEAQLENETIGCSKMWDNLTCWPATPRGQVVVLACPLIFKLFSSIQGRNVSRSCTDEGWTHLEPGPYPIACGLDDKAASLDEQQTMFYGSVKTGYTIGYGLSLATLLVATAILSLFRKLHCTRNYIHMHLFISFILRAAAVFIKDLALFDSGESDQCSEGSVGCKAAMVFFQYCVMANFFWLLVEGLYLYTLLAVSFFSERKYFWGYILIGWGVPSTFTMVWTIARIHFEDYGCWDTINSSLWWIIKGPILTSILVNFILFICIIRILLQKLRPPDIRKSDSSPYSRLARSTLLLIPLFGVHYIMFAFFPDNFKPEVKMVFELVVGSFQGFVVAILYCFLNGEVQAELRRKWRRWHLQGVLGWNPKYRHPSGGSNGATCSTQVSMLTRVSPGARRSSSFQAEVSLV
Method in brief: as §1

[1] = Rat serum stability studies (remaining active peptide by DiscoveRx cAMP on CHO-VPAC2 cells); type: in vitro ADME
Method in brief: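 Rat serum, 18 h: +aprotinin aliquot at 4° C, no-aprotinin aliquot at 37° C. Then 30 min RT step, supernatant removed, 1 h shaking at 300 rpm. DiscoveRx cAMP kit on CHO-VPAC2; EC50 from cAMP data vs standards.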

human VPAC2 [2] = biological target: T3, human VPAC2 (Homo sapiens, UniProt P41587); experiment: Filter binding assay, membranes of stable VPAC2 cell line, 125I-labeled VIP tracer (Table 2); conditions: read-out: Human VPAC2 Receptor Binding
T3 construct: expressed in transfected cells
T3 sequence (P41587 24-438): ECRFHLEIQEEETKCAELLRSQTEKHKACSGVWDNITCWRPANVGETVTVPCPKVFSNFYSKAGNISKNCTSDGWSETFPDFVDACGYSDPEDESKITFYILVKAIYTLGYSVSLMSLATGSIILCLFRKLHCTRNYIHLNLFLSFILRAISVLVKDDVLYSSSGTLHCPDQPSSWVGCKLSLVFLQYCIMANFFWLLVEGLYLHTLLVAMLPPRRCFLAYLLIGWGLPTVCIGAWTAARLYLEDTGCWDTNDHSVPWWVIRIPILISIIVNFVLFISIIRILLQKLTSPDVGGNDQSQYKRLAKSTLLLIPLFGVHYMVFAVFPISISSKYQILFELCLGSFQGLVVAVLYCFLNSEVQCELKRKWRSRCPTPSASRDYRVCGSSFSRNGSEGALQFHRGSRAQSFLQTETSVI
Method in brief: as §1

human VPAC2 [3] = biological target: T3, human VPAC2; experiment: Alpha screen cAMP in vitro potency, human VPAC2 receptor; type: cell-based; conditions: cAMP generation; single result from two analyses performed in a single run; read-out: Human VPAC2 Receptor: Alpha Screen EC50
Method in brief: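 Cells were detached with enzyme-free dissociation buffer, washed into stimulation buffer and used at 50,000 cells per data point. Stimuli and AlphaScreen acceptor beads were added for 60 minutes, then lysis buffer with donor beads for 60 to 120 minutes; the AlphaScreen signal reports intracellular cAMP.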

Compound	pIC50 (human PAC1)	pIC50 (human VPAC1)	Rat Serum Stability (estimated purity in % after 18 hours) [1] [%]	pIC50 (human VPAC2 [2])	pEC50 (human VPAC2 [3])
Hexanoyl-HSDAVFTDNYTRLA[Aib]QVAA[Aib]KYLQSIKNKRYGGPSSGAPPPS [Agonist P301]	< 4.60	< 5.52	6.86	8.14	–
Hexanoyl-HSD[dA]VFTDNYTRLRKQVAAKKYLQSIKNKRYGGPSSGAPPPS [Agonist P207]	–	6.55	<0.29	9.09	9.07
CCCCCC(=O)N[C@@H](Cc1c[nH]cn1)C(=O)N[C@@H](CO)C(=O)N[C@@H](CC(=O)O)C(=O)N[C@@H](C)C(=O)N[C@H](C(=O)N[C@@H](Cc1ccccc1)C(=O)N[C@H](C(=O)N[C@@H](CC(=O)O)C(=O)N[C@@H](CC(N)=O)C(=O)N[C@@H](Cc1ccc(O)cc1)C(=O)N[C@H](C(=O)N[C@@H](CCCNC(=N)N)C(=O)N[C@@H](CC(C)C)C(=O)N[C@@H](CCCNC(=N)N)C(=O)N[C@@H](CCCCN)C(=O)N[C@@H](CCC(N)=O)C(=O)N[C@H](C(=O)N[C@@H](C)C(=O)N[C@@H](C)C(=O)N[C@@H](CCCNC(=N)N)C(=O)N[C@@H](CCCNC(=N)N)C(=O)N[C@@H](Cc1ccc(O)cc1)C(=O)N[C@@H](CC(C)C)C(=O)N[C@@H](CCC(N)=O)C(=O)N[C@@H](CO)C(=O)N[C@H](C(=O)N[C@@H](CCCNC(=N)N)C(=O)N[C@@H](CC(N)=O)C(=O)NCC(=O)NCC(=O)N1CCC[C@H]1C(=O)N[C@@H](CO)C(=O)N[C@@H](CO)C(=O)NCC(=O)N[C@@H](C)C(=O)N1CCC[C@H]1C(=O)N1CCC[C@H]1C(=O)N1CCC[C@H]1C(=O)N[C@@H](CO)C(=O)O)[C@@H](C)CC)C(C)C)[C@@H](C)O)[C@@H](C)O)C(C)C [Agonist P214] (Hexanoyl-HSDAVFTDNYTRLRKQVAARRYLQSIRNGGPSSGAPPPS-OH; C-terminus assumed)	–	7.84	0.07	9.72	9.80
Hexanoyl-HSDAVFTDNYTRL[Aib]KQLAAK[Aib]YLQSIKNKRYGGPSSGAPPPS [Agonist P241]	< 4.60	< 5.52	62.55	7.74	–
Hexanoyl-HSDAVFTDNYTRLRFQVAAKKYLQSIKNKRYGGPSSGAPPPS [Agonist P180]	6.23	< 5.52	1.14	8.25	–
Hexanoyl-HSDAVFTDNYTRLR[Aib]QVAA[Aib]AYLQSIKNKRYGGPSSGAPPPS [Agonist P341]	–	< 5.52	12.82	8.62	9.42
Hexanoyl-HSDAVFTDNYTRLRKQVAAKKYLQSIKNKRFGGPSSGAPPPS [Agonist P203]	–	–	<0.09	9.74	9.85
Hexanoyl-HSDAVFTDNYTRLR[Aib]QAAA[Aib]KYLQSIKNKRYGGPSSGAPPPS [Agonist P324]	–	< 5.52	13.64	9.37	9.64
Hexanoyl-HSDAVFTDNYTRLRKQVAAKLYLQSIKNKRYGGPSSGAPPPS [Agonist P185]	–	6.45	0.27	9.39	9.74
Hexanoyl-HSDAVFTDNYTRLRLQVAAKKYLQSIKNKRYGGPSSGAPPPS [Agonist P179]	–	6.41	1.66	9.38	9.62
Hexanoyl-HSDAVFTANYTRLRKQVAAKKYLQSIKNKRYGGPSSGAPPPS [Agonist P158]	–	7.59	0.32	9.68	9.96
Hexanoyl-HSDAVFTDNYTRL[Cit][Aib]QVAA[Aib]KYLQSIKNKRYGGPSSGAPPPS [Agonist P320]	–	< 5.52	28.59	8.92	9.31
CCCCCC(=O)N[C@@H](Cc1c[nH]cn1)C(=O)N[C@@H](CO)C(=O)N[C@@H](CC(=O)O)C(=O)N[C@@H](C)C(=O)N[C@H](C(=O)N[C@@H](Cc1ccccc1)C(=O)N[C@H](C(=O)N[C@@H](CC(=O)O)C(=O)N[C@@H](CC(N)=O)C(=O)N[C@@H](Cc1ccc(O)cc1)C(=O)N[C@H](C(=O)N[C@@H](CCCNC(=N)N)C(=O)N[C@@H](CC(C)C)C(=O)N[C@@H](CCCNC(=N)N)C(=O)N[C@@H](CCCCN)C(=O)N[C@@H](CCC(N)=O)C(=O)N[C@H](C(=O)N[C@@H](C)C(=O)N[C@@H](C)C(=O)N[C@@H](CCCCN)C(=O)N[C@@H](CCCNC(=N)N)C(=O)N[C@@H](Cc1ccc(O)cc1)C(=O)N[C@@H](CC(C)C)C(=O)N[C@@H](CCC(N)=O)C(=O)N[C@@H](CO)C(=O)N[C@H](C(=O)N[C@@H](CCCNC(=N)N)C(=O)N[C@@H](CC(N)=O)C(=O)NCC(=O)NCC(=O)N1CCC[C@H]1C(=O)N[C@@H](CO)C(=O)N[C@@H](CO)C(=O)NCC(=O)N[C@@H](C)C(=O)N1CCC[C@H]1C(=O)N1CCC[C@H]1C(=O)N1CCC[C@H]1C(=O)N[C@@H](CO)C(=O)O)[C@@H](C)CC)C(C)C)[C@@H](C)O)[C@@H](C)O)C(C)C [Agonist P213] (Hexanoyl-HSDAVFTDNYTRLRKQVAAKRYLQSIRNGGPSSGAPPPS-OH; C-terminus assumed)	–	7.49	0.04	9.57	9.62
Hexanoyl-HSDA[Aib]FTDNYTRLRKQVAAKKYLQSIKNKRYGGPSSGAPPPS [Agonist P212]	–	6.70	0.21	9.72	9.92
Hexanoyl-HSDAVFTDNYTRL[hArg][Aib]QVAA[Aib]KYLQSIKNKRYGGPSSGAPPPS [Agonist P316]	–	< 5.52	15.06	9.42	9.52
Hexanoyl-HSDAVFTENYTRLRKQVAAKKYLQSIKNKRYGGPSSGAPPPS [Agonist P159]	–	6.88	0.15	9.77	9.77
Hexanoyl-HSDAVFTDNYTRLLAKLAAQKYLQSIKNKRYGGPSSGAPPPS [Agonist P197]	–	6.35	5.68	9.51	10.05
